The record followed here is US20260327214A1, “1,3,4-OXADIAZOLE DERIVATIVE COMPOUNDS AS HISTONE DEACETYLASE 6 INHIBITOR, AND USES THEREOF” (CHONG KUN DANG PHARMACEUTICAL CORP., priority 2022, published 2026).

In one test the target is T1, human recombinant HDAC6 (Homo sapiens, UniProt Q9UBN7).
T1 construct: purchased Calbiochem 382180
T1 sequence (Q9UBN7 1-1215): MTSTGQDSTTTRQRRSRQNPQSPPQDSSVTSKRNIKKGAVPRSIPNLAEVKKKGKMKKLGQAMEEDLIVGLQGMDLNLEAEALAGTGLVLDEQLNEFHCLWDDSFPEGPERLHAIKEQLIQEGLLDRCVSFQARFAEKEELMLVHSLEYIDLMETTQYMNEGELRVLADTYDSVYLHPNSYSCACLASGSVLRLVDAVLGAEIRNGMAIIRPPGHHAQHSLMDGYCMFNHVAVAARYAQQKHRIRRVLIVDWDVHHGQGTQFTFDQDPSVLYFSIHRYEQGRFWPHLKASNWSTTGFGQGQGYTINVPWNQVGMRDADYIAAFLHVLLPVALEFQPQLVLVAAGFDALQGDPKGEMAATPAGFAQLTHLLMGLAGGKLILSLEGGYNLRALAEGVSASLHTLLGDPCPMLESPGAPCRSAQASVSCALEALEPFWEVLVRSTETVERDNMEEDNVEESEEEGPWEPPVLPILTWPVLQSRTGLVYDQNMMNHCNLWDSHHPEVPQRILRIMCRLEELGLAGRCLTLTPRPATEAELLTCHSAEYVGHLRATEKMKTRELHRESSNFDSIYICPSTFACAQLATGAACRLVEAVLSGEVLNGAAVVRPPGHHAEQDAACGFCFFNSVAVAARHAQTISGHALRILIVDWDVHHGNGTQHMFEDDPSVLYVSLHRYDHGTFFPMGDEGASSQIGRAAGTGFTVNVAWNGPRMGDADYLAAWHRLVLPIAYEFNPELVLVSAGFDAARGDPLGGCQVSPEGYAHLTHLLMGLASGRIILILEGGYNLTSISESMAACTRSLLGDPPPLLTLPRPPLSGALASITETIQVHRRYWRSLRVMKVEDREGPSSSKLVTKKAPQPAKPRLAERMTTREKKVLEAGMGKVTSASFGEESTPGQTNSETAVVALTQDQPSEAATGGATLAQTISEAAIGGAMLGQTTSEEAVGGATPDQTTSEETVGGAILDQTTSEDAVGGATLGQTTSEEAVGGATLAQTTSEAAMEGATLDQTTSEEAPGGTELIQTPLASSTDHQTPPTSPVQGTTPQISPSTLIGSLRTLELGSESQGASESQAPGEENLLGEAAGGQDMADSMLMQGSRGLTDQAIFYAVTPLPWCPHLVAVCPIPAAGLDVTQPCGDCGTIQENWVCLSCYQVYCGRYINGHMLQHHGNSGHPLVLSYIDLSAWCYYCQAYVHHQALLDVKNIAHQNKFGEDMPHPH
The test is described as follows: HDAC6 enzyme activity inhibition test (HDAC Fluorometric Drug Discovery Kit). Format: biochemical. The conditions noted are these: for HDAC6 selectivity (fold): HDAC6 over HDAC1; for IC50: human recombinant HDAC6, same protocol as HDAC1. In a few lines:
(§1)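 IC50 derived from fluorescence (Ex 360, Em 460) following 30 min development with Developer II. Each reaction held 0.3 μg human recombinant HDAC1 or HDAC6, 10 μM Fluor de Lys SIRT1 substrate and 5-fold serially diluted compound, incubated 60 min at 30 °C.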

Another test has as its target T2, human recombinant HDAC1 (Homo sapiens, UniProt Q13547).
T2 construct: purchased Enzo Life Science BML-SE456
The test is described as follows: HDAC1 enzyme activity inhibition test (HDAC Fluorometric Drug Discovery Kit). Format: biochemical. The conditions noted are these: 30° C., 60 minutes, 10 μM substrate. In a few lines:
as §1

T2 sequence (Q13547 whole entry): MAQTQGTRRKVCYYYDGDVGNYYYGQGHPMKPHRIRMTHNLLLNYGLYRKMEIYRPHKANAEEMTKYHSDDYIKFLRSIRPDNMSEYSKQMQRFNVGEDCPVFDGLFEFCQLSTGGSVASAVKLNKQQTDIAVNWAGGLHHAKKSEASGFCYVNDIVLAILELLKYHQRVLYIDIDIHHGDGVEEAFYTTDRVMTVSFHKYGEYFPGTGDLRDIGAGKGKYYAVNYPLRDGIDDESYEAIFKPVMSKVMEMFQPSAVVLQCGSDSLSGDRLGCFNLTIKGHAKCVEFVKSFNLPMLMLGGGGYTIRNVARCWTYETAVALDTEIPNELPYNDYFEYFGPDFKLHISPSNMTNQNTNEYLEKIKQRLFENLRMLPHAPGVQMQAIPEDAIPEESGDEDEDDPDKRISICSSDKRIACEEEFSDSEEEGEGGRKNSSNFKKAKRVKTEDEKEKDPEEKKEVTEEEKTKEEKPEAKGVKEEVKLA

Broadly, the IC50 is the midpoint of a concentration-inhibition curve. Take `Fc1cc(-c2nnc(C(F)F)o2)cnc1Cn1nc(-c2ccc(CN3CC[C@@H](F)C3)cc2)oc1=S` [Compound 113, 3-[[5-[5-(difluoromethyl)-1,3,4-oxadiazol-2-yl]-3-fluoro-2-pyridyl]methyl]-5-[4-[[(3R)-3-fluoropyrrolidin-1-yl]methyl]phenyl]-1,3,4-oxadiazol-2-thione]: on human recombinant HDAC6, the “HDAC6 selectivity (fold)” value is reported as 778 fold and the IC50 was 64.3 nM. Moreover, the IC50 at human recombinant HDAC1 is > 50000 nM.
The like results for `Cc1nc(-c2nn(Cc3ccc(-c4nnc(C(F)F)o4)cn3)c(=S)o2)cs1` [Compound 59, 3-[[5-[5-(difluoromethyl)-1,3,4-oxadiazol-2-yl]-2-pyridyl]methyl]-5-(2-methylthiazol-4-yl)-1,3,4-oxadiazol-2-thione] were, in that order, 669 fold, 74.7 nM and > 50000 nM.
The like results for `CC(C)N1CCN(c2cc(-c3nn(Cc4ccc(-c5nnc(C(F)F)o5)cn4)c(=S)o3)ccn2)CC1` [Compound 105, 3-[[5-[5-(difluoromethyl)-1,3,4-oxadiazol-2-yl]-2-pyridyl]methyl]-5-[2-(4-isopropylpiperazin-1-yl)-4-pyridyl]-1,3,4-oxadiazol-2-thione] were, in that order, 734 fold, 68.1 nM and > 50000 nM.
The like results for `CNCc1ccc(-c2nn(Cc3ncc(-c4nnc(C(F)F)o4)cc3F)c(=S)o2)cc1` [Compound 108, 3-[[5-[5-(difluoromethyl)-1,3,4-oxadiazol-2-yl]-3-fluoro-2-pyridyl]methyl]-5-[4-(methylaminomethyl)phenyl]-1,3,4-oxadiazol-2-thione] were, in that order, 1475 fold, 33.9 nM and > 50000 nM.
Turning to `O=c1sc(-c2ccccc2F)nn1Cc1ccc(-c2nnc(C(F)F)o2)cn1` [Compound 54, 3-[[5-[5-(difluoromethyl)-1,3,4-oxadiazol-2-yl]-2-pyridyl]methyl]-5-(2-fluorophenyl)-1,3,4-thiadiazol-2-one], on human recombinant HDAC6, the “HDAC6 selectivity (fold)” value is 444 fold. In addition, the IC50 at human recombinant HDAC6 was 113 nM; at human recombinant HDAC1 it was > 50000 nM.
The like results for `CCN1CCc2cc(-c3nn(Cc4ccc(-c5nnc(C(F)F)o5)cn4)c(=S)o3)sc2C1` [Compound 140, 3-[[5-[5-(difluoromethyl)-1,3,4-oxadiazol-2-yl]-2-pyridyl]methyl]-5-(6-ethyl-5,7-dihydro-4H-thieno[2,3-c]pyridin-2-yl)-1,3,4-oxadiazol-2-thione] were, in that order, 1114 fold, 44.9 nM and > 50000 nM.
In the case of `CC(C)N1CCN(Cc2cccc(-c3nn(Cc4ccc(-c5nnc(C(F)F)o5)cn4)c(=O)s3)c2)CC1` [Compound 63, 3-[[5-[5-(difluoromethyl)-1,3,4-oxadiazol-2-yl]-2-pyridyl]methyl]-5-[3-[(4-isopropylpiperazin-1-yl)methyl]phenyl]-1,3,4-thiadiazol-2-one], on human recombinant HDAC6, the “HDAC6 selectivity (fold)” value was 620 fold and the IC50 turned out to be 80.7 nM. Moreover, the IC50 on human recombinant HDAC1 is > 50000 nM.
On the same counts, the results for `O=c1sc(-c2ccc(CN3CCN(C4CCC4)CC3)cc2)nn1Cc1ccc(-c2nnc(C(F)F)o2)cn1` [Compound 67] are 890 fold, 56.2 nM and > 50000 nM.
On the same counts, the results for `Fc1cc(-c2nnc(C(F)F)o2)cnc1Cn1nc(-c2ccc(CN3CC(F)C3)cc2)oc1=S` [Compound 110, 3-[[5-[5-(difluoromethyl)-1,3,4-oxadiazol-2-yl]-3-fluoro-2-pyridyl]methyl]-5-[4-[(3-fluoroazetidine-1-yl)methyl]phenyl]-1,3,4-oxadiazol-2-thione] are 919 fold, 54.4 nM and > 50000 nM.
The like results for `O=C1OCC(c2ccccn2)=NN1Cc1ncc(-c2nnc(C(F)F)o2)cc1F` [Compound 73, 3-[[5-[5-(difluoromethyl)-1,3,4-oxadiazol-2-yl]-3-fluoro-2-pyridyl]methyl]-5-(2-pyridyl)-6H-1,3,4-oxadiazin-2-one] were, in that order, 442 fold, 113 nM and > 50000 nM.
With `O=c1oc(-c2ccsc2)nn1Cc1ccc(-c2nnc(C(F)F)o2)cn1` [Compound 16, 3-[[5-[5-(difluoromethyl)-1,3,4-oxadiazol-2-yl]-2-pyridyl]methyl]-5-(3-thienyl)-1,3,4-oxadiazol-2-one], at human recombinant HDAC6, the “HDAC6 selectivity (fold)” value worked out at 551 fold and the IC50 is 90.8 nM. For the same compound, the IC50 at human recombinant HDAC1 was > 50000 nM.
On the same counts, the results for `FC(F)c1nnc(-c2ccc(Cn3nc(-c4ccccn4)oc3=S)nc2)o1` [Compound 46, 3-[[5-[5-(difluoromethyl)-1,3,4-oxadiazol-2-yl]-2-pyridyl]methyl]-5-(2-pyridyl)-1,3,4-oxadiazol-2-thione] are 1171 fold, 42.7 nM and > 50000 nM.
Consider `FC(F)c1nnc(-c2ccc(Cn3nc(-c4ccc(CN5CCCCC5)cc4)oc3=S)nc2)o1` [Compound 94, 3-[[5-[5-(difluoromethyl)-1,3,4-oxadiazol-2-yl]-2-pyridyl]methyl]-5-[4-(1-piperidylmethyl)phenyl]-1,3,4-oxadiazol-2-thione], for which the “HDAC6 selectivity (fold)” value on human recombinant HDAC6 was 1672 fold. For the same compound, the IC50 on human recombinant HDAC6 is 29.9 nM; at human recombinant HDAC1, > 50000 nM.
The like results for `CC(C)N1CCN(Cc2ccc(-c3nn(Cc4ccc(-c5nnc(C(F)F)o5)cn4)c(=O)o3)cc2)CC1` [Compound 83, 3-[[5-[5-(difluoromethyl)-1,3,4-oxadiazol-2-yl]-2-pyridyl]methyl]-5-[4-[(4-isopropylpiperazin-1-yl)methyl]phenyl]-1,3,4-oxadiazol-2-one] were, in that order, 554 fold, 90.3 nM and > 50000 nM.
As to `Cn1c(-c2ccccc2)cn(Cc2ccc(-c3nnc(C(F)F)o3)cn2)c1=O` [Compound 144, 1-((5-(5-(difluoromethyl)-1,3,4-oxadiazol-2-yl)pyridin-2-yl)methyl)-3-methyl-4-phenyl-1,3-dihydro-2H-imidazol-2-one], at human recombinant HDAC6, the “HDAC6 selectivity (fold)” value was determined as 185 fold and the IC50 was 271 nM. Moreover, the IC50 on human recombinant HDAC1 is > 50000 nM.
On the same counts, the results for `Fc1cc(-c2nnc(C(F)F)o2)cnc1Cn1nc(-c2ccc(CN3CCC3)s2)oc1=S` [Compound 130, 5-[5-(azetidine-1-ylmethyl)-2-thienyl]-3-[[5-[5-(difluoromethyl)-1,3,4-oxadiazol-2-yl]-3-fluoro-2-pyridyl]methyl]-1,3,4-oxadiazol-2-thione] are 750 fold, 66.7 nM and > 50000 nM.
The like results for `CN1CCc2ccc(-c3nn(Cc4ccc(-c5nnc(C(F)F)o5)cn4)c(=O)o3)cc2C1` [Compound 12, 3-[[5-[5-(difluoromethyl)-1,3,4-oxadiazol-2-yl]-2-pyridyl]methyl]-5-(2-methyl-3,4-dihydro-1H-isoquinolin-7-yl)-1,3,4-oxadiazol-2-one] were, in that order, 607 fold, 82.4 nM and > 50000 nM.
`CC1CCN(Cc2cccc(-c3nn(Cc4ccc(-c5nnc(C(F)F)o5)cn4)c(=S)o3)c2)CC1` [Compound 88, 3-[[5-[5-(difluoromethyl)-1,3,4-oxadiazol-2-yl]-2-pyridyl]methyl]-5-[3-[(4-methyl-1-piperidyl)methyl]phenyl]-1,3,4-oxadiazol-2-thione]: on human recombinant HDAC6, the “HDAC6 selectivity (fold)” value amounted to 449 fold and the IC50 amounted to 111 nM. In addition, on human recombinant HDAC1, the IC50 was > 50000 nM.
On the same counts, the results for `FC(F)c1nnc(-c2ccc(Cn3nc(-c4ccc(CN5CC[C@H](F)C5)s4)oc3=S)nc2)o1` [Compound 125, 3-[[5-[5-(difluoromethyl)-1,3,4-oxadiazol-2-yl]-2-pyridyl]methyl]-5-[5-[[(3S)-3-fluoropyrrolidin-1-yl]methyl]-2-thienyl]-1,3,4-oxadiazol-2-thione] are 563 fold, 88.8 nM and > 50000 nM.
